How the values were obtained:
[1] = system: aPTT clotting time in murine plasma; test: aPTT clotting assay in murine plasma with rhAPC; assay type: biochemical, mouse; settings: 5 U/mL FVa variants, APC, ~100 seconds without FVa
Procedure: (§1) APC-mediated inactivation of FVa was analyzed in ETP assays and aPTT clotting assays. FVa mutants were incubated with equal volumes of either recombinant human APC (Xigris®) or buffer in human and murine Balb/c plasma.
Plasma (50 μL) was mixed with 50 μL of a PTT reagent (APTT-XL, Pacific Hemostasis) and incubated at 37° C. for 3 minutes in the presence of FVa either with recombinant human APC or buffer. Following addition of 25 μL of 50 mM CaCl2 in HBS, 0.5% BSA, the clotting time was recorded using an ST4 coagulometer (Diagnostica Stago).

[2] = system: thrombin generation in patient plasma; test: Thrombin generation in plasma of inhibitor patients before and 5 minutes after rhFVIIa infusion, ^superFVa added ex vivo; assay type: biochemical, human
Text: Normal pooled human plasma and plasma from human FVIII-deficient patients with and without inhibitors (titer specified in Bethesda Units (BU)) was purchased from George King Bio-Medical (Overland Park, Kans., USA). In addition, plasma and clinical information was obtained from two patients with severe FVIII-deficiency (<1% intrinsic FVIII-activity levels) and inhibitors (titers determined in BU by the clinical laboratory using the Nijmegen assay (17) regularly visiting the Hemophilia Treatment Center at the University of California, San Diego (UCSD) after informed consent was obtained. Patient confidentiality safeguards, sample and data acquisition methods were approved by the UCSD Institutional Review Board. Blood was drawn into 3.8% sodium citrate (pH 5.5) at a 9:1 blood/anticoagulant volume ratio, and processed immediately. Plasma was collected and frozen at −80° C. after centrifugation at 2600×g for 15 minutes. The following reagents were used: Thrombin from Enzyme Research Laboratories (South Bend, Ind., USA), hirudin from Calbiochem (San Diego, Calif., USA), Corn trypsin inhibitor (CTI) from Enzyme Research Laboratories, thrombin calibrator from Synapse BV (distributed by Diagnostica Stago), Substrate Z-Gly-Gly-Arg-AMC from Bachem (Bubendorf Switzerland), recombinant human tissue factor (TF), Dade Innovin from Dade Behring (Newark, Del., USA), mouse anti-human FVIII (GMA8015) and isotype antibody (GMA650) from Green mountain antibodies (Burlington, Vt., USA), recombinant human FVIIa, NovoSeven®, from NovoNordisk (Bagsvaerd, Denmark), Phospholipid vesicles (80% phosphatidylcholine (PC), 20% phosphatidylserine (PS)) were purchased from Avanti Lipids (Alabaster, Ala., USA) and prepared as described (18).
Endogenous thrombin potential (ETP) assays were performed as described (19). Briefly, plasma samples supplemented with CTI, TF, PCPS vesicles and coagulation factors were preincubated with the plasma at 37° C. Thrombin generation was initiated by addition of CaCl2 and Z-Gly-Gly-Arg-AMC in HBS/0.5% BSA. The final reaction mixture contained, 50% plasma, 0.2 pM TF, […] PCPS vesicles, 0.725 μM CTI, 0.5 mM Z-GGR-AMC and 7.6 mM CaCl2 in a total volume of 100 μL. In some experiments, 1.25 μg/ml anti-FVIII antibody was added to the plasma and ETP was determined after 1 hour of preincubation. Fluorescence was measured at excitation/emission wavelengths of […] using Gemini EM fluorescent plate reader (Molecular Devices). Fluorescence time course data were converted to nM thrombin as described (20). ETP, defined as the area under the curve (AUC) and the peak height were determined using Origin or GraphPad Prism software.
This example relates to the experiments the results of which are contained in FIG. 5. […]

[3] = system: Balb/c mice; test: Tail clip bleeding assay, APC-induced bleeding in Balb/c mice; assay type: in vivo, mouse
Procedure: Mice were anesthetized with Isoflurane 3%, placed on temperature controlled heating pads (37° C.), and the distal portion of the tail was cut at 1.5 mm diameter after which the tail was immersed in a predefined volume of 37° C. saline (0.9% NaCl) for 20 minutes. To study effects on bleeding and clot stability, tubes were changed after 10 minutes to collect blood for the first and second 10 minutes separately. Blood loss was determined by the hemoglobin concentration in the saline solution after red cell lysis with 2% acetic acid and measured by absorbance at 490 nm. Using a hemoglobin standard derived from defined blood volumes, blood loss was calculated assuming a hematocrit of 46% and expressed in μL/g body weight. Groups of Balb/c mice were injected intravenously (tail vein) with equal volumes (200 μL) of ^superFVa or saline 2 minutes prior to intravenous injection of rhAPC (Xigris®). Immediately after APC injection tail cut was performed. All agents were diluted in sterile sodium chloride 0.9% for injection (Hospira Inc).

[4] = system: thrombin generation in murine Balb/c plasma with rhAPC; test: Thrombin generation in murine Balb/c plasma in the presence of rhAPC; assay type: biochemical, mouse
Procedure: BU titer values for FVIII antibodies added to FVIII-deficient plasma were determined using a modified Nijmegen Bethesda assay (Barrow and Lollar; JTH 2006, 4:2223-2229). Briefly, antibody was serially diluted in HBS with 0.05% Tween 80 and mixed 1:1 with pooled normal plasma that was supplemented with 100 mM Imidazole, pH 7.0. Samples were incubated at 37° C. for 2 hours then assayed by aPTT with APTT XL reagent (Pacific Hemostasis). A standard curve was derived from a serial dilution of normal plasma into FVIII deficient plasma that was also mixed 1:1 with HBST and incubated at 37° C. for 2 hours. Percent FVIII activity was plotted versus mg/ml of antibody and residual activity of 50% was defined as 1 BU/ml. In addition, endogenous thrombin potential (ETP) assays were performed as described (3). Briefly FVa mutants or saline were added to human or murine plasma (George King Bio-Medical; mouse source, 50% v/v) supplemented with […] corn trypsin inhibitor (Haematologic Technologies), 10 mM CaCl2, 10 μM phospholipid vesicles (80% phosphatidylcholine, 20% phosphatidylserine, prepared as described (6), 0.2 pM soluble tissue factor (Innovin®, Dade Behring), and 0.4 mM Z-Gly-Gly-Arg-AMC (thrombin substrate, Bachem) in HBS. After mixing, 100 μL was transferred to a FluoroNunc microtiter plate at 37° C. to monitor fluorescence (excitation at 360 nm/emission at 460 nm; Gemini EM fluorescent plate reader (Molecular Devices)). Fluorescence time course data were converted to nM thrombin as described (7). ETP, defined as the area under the curve, was determined using Prism 5.04 (Graphpad).
as §1

[5] = increasing ^superFVa added ex vivo, plasma before and 5 minutes after rhFVIIa infusion

With “^superFVa: engineered APC-resistant FVa variant (SEQ ID NO:4): R306Q, R506Q, R679Q, Cys609-Cys1691 disulfide, S2183A, B-domain deleted” the aPTT [1] was “fully corrected the aPTT”, the “^superFVa concentration at which ETP plateaued” value ([2]; Patient A, BU=64) was 10 nM and the “additional increase of ETP” value [2, 5] was ~3 fold. The “additional increase of peak height” value [2, 5] was ~3 fold, the “^superFVa concentration at which ETP plateaued” value ([2]; patient with BU=64) was 1.76 µg/mL and the mean blood loss ([3]; ^superFVa 5 U/mL 2 minutes prior to APC 1.25 mg/kg, 20 minutes) was 21 µL/g. It also gave a mean blood loss ([3]; ^superFVa 25 U/mL 2 minutes prior to APC 1.25 mg/kg, 20 minutes) of 9.2 µL/g, a mean blood loss ([3]; ^superFVa 25 U/mL + APC, first 10 minutes) of 4.3 µL/g and a mean blood loss ([3]; ^superFVa 25 U/mL + APC, second 10 minutes) of 4.8 µL/g. The mean blood loss ([3]; ^superFVa iv 3.5 mg/kg 2 min prior to wt APC 1.25 mg/kg) was 9.2 µL/g, the ETP restored ([4]; ETP maximally suppressed by APC) was 90-100% and the “effect on thrombin generation suppressed by APC” value ([4]; concentrations where ^superFVa restores) was “fully restored thrombin generation”.
